According to US7211576B2, “Diaminothiazoles” (Hoffmann-La Roche Inc., priority 2004, dated 2007):

Assays:
[1] = system: HCT116, a colorectal carcinoma cell line; test: Tetrazolium dye (MTT) proliferation assay; type: cell-based; settings: Homo sapiens, HCT-116; HCT116 cells, inhibition of cell proliferation
Protocol: Proliferation was evaluated by the tetrazolium dye assay according to the procedure of Denizot and Lang (Denizot, F. and Lang, R. J Immunol Methods 1986, 89, 271–277). The cell line used was HCT116, a colorectal carcinoma cell line obtained from the American Type Cell Culture Collection (ATCC; Rockville, Md.). The cells were grown in McCoy's 5A medium supplemented with 10% FCS and L-glutamine.
Cells were plated at the appropriate seeding density to give logarithmic growth over the course of the assay in a 96-well tissue culture plate. Plates were incubated overnight at 37° C. in a humidified incubator with 5% CO2. The next day, test compounds were serially diluted to four times the final concentration in the appropriate medium containing 1.2% DMSO. One-fourth final volume of each dilution was added in duplicate to the plates containing cells. The same volume of 1.2% DMSO in medium was added to a row of “control wells” such that the final concentration of DMSO in each well was 0.3%. Wells to which no cells were added served as the “blank.” Wells to which no inhibitor was added served as “no inhibitor control.” The plates were) returned to the incubator, and at set time points (determined by their growth curves) plates were analyzed as described below.
3-(4,5-dimethylthiazole-2-yl)-2,5-diphenyl-2H-tetrazolium bromide (thiazolyl blue; MTT; Sigma) was added to each well to yield a final concentration of 1 mg/ml. Plates were returned to the incubator for 2.5–3 hours at 37° C. The MTT-containing medium was removed and the resulting formazan metabolite was solubilized in 100% ethanol with shaking for 15 minutes at room temperature. Absorbance readings were taken in a microtiter plate reader (Dynatech and Molecular Devices plate readers were used interchangeably) at a wavelength of 570 nm with a 650 nm reference. Percent inhibition (% INH) is calculated by subtracting the absorbance of the blank well from all wells, then subtracting the ratio of the average absorbance of each test duplicate (SAVE) by the average of the controls (CAVE) from 1.00. The final number is then multiplied by 100 (% INH=(1.00−SAVE/CAVE)×100). The concentration at which 50% inhibition of cell proliferation is obtained (the IC50) is determined from the linear regression of a plot of the logarithm of the concentration versus percent inhibition.

[2] = target: human cyclin B-CDK1 (Homo sapiens, UniProt P06493); test: FlashPlate kinase assay, cyclin B-CDK1; type: biochemical; settings: Rb protein substrate, 1 μM ATP, 33P-ATP, 30 minutes room temperature
Chain of human cyclin B-CDK1 (P06493 whole entry): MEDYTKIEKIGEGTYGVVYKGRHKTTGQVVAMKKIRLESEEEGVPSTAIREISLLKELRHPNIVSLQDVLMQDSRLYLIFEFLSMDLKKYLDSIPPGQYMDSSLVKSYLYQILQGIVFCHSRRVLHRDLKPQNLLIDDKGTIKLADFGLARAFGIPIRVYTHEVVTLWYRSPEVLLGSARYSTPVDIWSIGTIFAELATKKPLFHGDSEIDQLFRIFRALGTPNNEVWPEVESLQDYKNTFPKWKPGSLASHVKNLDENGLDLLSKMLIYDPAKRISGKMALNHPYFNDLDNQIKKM
Chain of human cyclin B-CDK1 (P14635 whole entry partner): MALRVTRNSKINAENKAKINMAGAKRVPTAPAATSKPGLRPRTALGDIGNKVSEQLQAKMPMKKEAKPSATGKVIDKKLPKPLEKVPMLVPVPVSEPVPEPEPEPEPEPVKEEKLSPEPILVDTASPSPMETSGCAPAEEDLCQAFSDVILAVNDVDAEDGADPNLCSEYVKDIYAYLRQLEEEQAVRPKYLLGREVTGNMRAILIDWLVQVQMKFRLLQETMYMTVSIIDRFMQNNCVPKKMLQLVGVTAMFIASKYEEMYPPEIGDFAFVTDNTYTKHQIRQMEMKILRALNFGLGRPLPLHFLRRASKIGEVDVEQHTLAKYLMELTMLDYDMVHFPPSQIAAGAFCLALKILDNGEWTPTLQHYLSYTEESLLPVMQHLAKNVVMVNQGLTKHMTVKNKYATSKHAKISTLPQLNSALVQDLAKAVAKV

[3] = target: human cyclin E-CDK2 (Homo sapiens, UniProt P24941); test: FlashPlate kinase assay, cyclin E-CDK2; type: biochemical; settings: Rb protein substrate, 1 μM ATP, 33P-ATP, 30 minutes room temperature
[4] = target: human cyclin D1-CDK4 (Homo sapiens, UniProt P11802); test: FlashPlate kinase assay, cyclin D1-CDK4; type: biochemical; settings: Rb protein substrate, 1 μM ATP, 33P-ATP, 30 minutes room temperature; read-out: CDK4 IC50
Chain of human cyclin D1-CDK4 (P11802 whole entry): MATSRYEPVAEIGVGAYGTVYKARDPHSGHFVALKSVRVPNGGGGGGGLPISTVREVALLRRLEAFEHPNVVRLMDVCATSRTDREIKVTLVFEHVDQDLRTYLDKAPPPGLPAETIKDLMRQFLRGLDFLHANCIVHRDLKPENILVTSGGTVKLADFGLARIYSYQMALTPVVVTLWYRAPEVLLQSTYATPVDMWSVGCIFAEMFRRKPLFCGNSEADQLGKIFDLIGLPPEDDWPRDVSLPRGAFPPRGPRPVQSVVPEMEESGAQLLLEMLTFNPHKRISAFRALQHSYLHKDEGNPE
Chain of human cyclin D1-CDK4 (P24385 whole entry partner): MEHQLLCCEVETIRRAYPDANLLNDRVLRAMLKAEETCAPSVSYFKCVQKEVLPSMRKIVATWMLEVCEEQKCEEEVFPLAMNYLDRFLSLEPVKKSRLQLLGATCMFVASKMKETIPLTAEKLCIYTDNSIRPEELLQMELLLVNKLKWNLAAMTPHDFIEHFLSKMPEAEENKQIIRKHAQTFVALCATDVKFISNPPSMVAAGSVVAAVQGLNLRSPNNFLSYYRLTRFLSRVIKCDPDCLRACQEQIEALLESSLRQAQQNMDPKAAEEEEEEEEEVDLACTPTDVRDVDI

IC50 [1] [nM]	IC50 [2] [nM]	IC50 [3] [nM]	IC50 [4] [nM]	Compound
2550	5590	750	15	CCc1cccc(C(=O)c2sc(Nc3ccc(N4CCC(N5CCOCC5)CC4)cc3)nc2N)c1 [Example 116, {4-Amino-2-[4-(4-morpholin-4-yl-piperidin-1-yl)-phenylamino]-thiazol-5-yl}-(3-ethyl-phenyl)-methanone]
1640	710	1820	9	Nc1nc(Nc2ccc(N3CCC(N4CCCC(O)C4)CC3)cc2)sc1C(=O)c1cccc([N+](=O)[O-])c1 (centres unmarked) [Example 91, {4-Amino-2-[4-(3-hydroxy-[1,4′]bipiperidinyl-1′-yl)-phenylamino]-thiazol-5-yl}-(3-nitro-phenyl)-methanone]
4150	1530	3240	31	CCOc1cccc(C(=O)c2sc(Nc3ccc(N4CCC(N5CCCC5)CC4)cc3)nc2N)c1 [Example 118, {4-Amino-2-[4-(4-pyrrolidin-1-yl-piperidin-1-yl)-phenylamino]-thiazol-5-yl}-(3-ethoxy-phenyl)-methanone]
3910	1870	2580	23	CN(C)C1CCN(c2ccc(Nc3nc(N)c(C(=O)c4cccc(C5CC5)c4)s3)cc2)CC1 [Example 120, {4-Amino-2-[4-(4-dimethylamino-piperidin-1-yl)-phenylamino]-thiazol-5-yl}-(3-cyclopropyl-phenyl)-methanone]
3120	810	2790	7	CN(C)C1CCN(c2ccc(Nc3nc(N)c(C(=O)c4cccc(O)c4)s3)cc2)CC1 [Example 50, {4-Amino-2-[4-(4-dimethylamino-piperidin-1-yl)-phenylamino]-thiazol-5-yl}-(3-hydroxy-phenyl)-methanone]
4220	5190	5310	20	CCc1cc(C(=O)c2sc(Nc3ccc(N4CCC(N5CCCC5)CC4)cc3)nc2N)ccc1F [Example 122, {4-Amino-2-[4-(4-pyrrolidin-1-yl-piperidin-1-yl)-phenylamino]-thiazol-5-yl}-(3-ethyl-4-fluoro-phenyl)-methanone]
2900	870	1600	15	CN(C)C1CCN(c2ccc(Nc3nc(N)c(C(=O)c4cccc([N+](=O)[O-])c4)s3)cc2)CC1 [Example 92, {4-Amino-2-[4-(4-dimethylamino-piperidin-1-yl)-phenylamino]-thiazol-5-yl}-(3-nitro-phenyl)-methanone]
1720	1250	5130	16	CN(C)C1CCN(c2ccc(Nc3nc(N)c(C(=O)c4ccc5c(c4)OCCO5)s3)cc2)CC1 [Example 44, {4-Amino-2-[4-(4-dimethylamino-piperidin-1-yl)-phenylamino]-thiazol-5-yl}-(2,3-dihydro-benzo[1,4]dioxin-6-yl)-methanone]
1370	2710	945	12	CCc1cccc(C(=O)c2sc(Nc3ccc(N4CCC(N5CCCC5)CC4)cc3)nc2N)c1 [Example 114, {4-Amino-2-[4-(4-pyrrolidin-1-yl-piperidin-1-yl)-phenylamino]-thiazol-5-yl}-(3-ethyl-phenyl)-methanone]
9480	640	5110	52	Nc1nc(Nc2ccc(N3CCC(N4CCCC(O)C4)CC3)cc2)sc1C(=O)c1ccc(O)cc1 (centres unmarked) [Example 40, {4-Amino-2-[4-(3-hydroxy-[1,4′]bipiperidinyl-1′-yl)-phenylamino]-thiazol-5-yl}-(4-hydroxy-phenyl)-methanone]
3260	1560	9430	50	CCNC1CCN(c2ccc(Nc3nc(N)c(C(=O)c4ccc(OC)c(F)c4)s3)cc2)CC1 [Example 136, {4-Amino-2-[4-(4-ethylamino-piperidin-1-yl)-phenylamino]-thiazol-5-yl}-(3-fluoro-4-methoxy-phenyl)-methanone]
1750	1280	2890	12	COc1ccc(C(=O)c2sc(Nc3ccc(N4CCC(N5CCCC5)CC4)cc3)nc2N)cc1F [Example 23]
3370	1150	6100	28	CCNC1CCN(c2ccc(Nc3nc(N)c(C(=O)c4cccc(OC)c4)s3)cc2)CC1 [Example 135, {4-Amino-2-[4-(4-ethylamino-piperidin-1-yl)-phenylamino]-thiazol-5-yl}-(3-methoxy-phenyl)-methanone]
1050	345	200	14	CCCc1cc(C(=O)c2sc(Nc3ccc(N4CCC(N5CCCC5)CC4)cc3)nc2N)ccc1O [Example 123, {4-Amino-2-[4-(4-pyrrolidin-1-yl-piperidin-1-yl)-phenylamino]-thiazol-5-yl}-(4-hydroxy-3-propyl-phenyl)-methanone]
1240	1330	4500	46	CCNC1CCN(c2ccc(Nc3nc(N)c(C(=O)c4cccc(OC)c4)s3)cc2)C1 (centres unmarked) [Example 134, {4-Amino-2-[4-(3-ethylamino-pyrrolidin-1-yl)-phenylamino]-thiazol-5-yl}-(3-methoxy-phenyl)-methanone]
1240	2800	1040	10	CCc1cccc(C(=O)c2sc(Nc3ccc(N4CCC(N(C)C)CC4)cc3)nc2N)c1 [Example 115, {4-Amino-2-[4-(4-dimethylamino-piperidin-1-yl)-phenylamino]-thiazol-5-yl}-(3-ethyl-phenyl)-methanone]
2000	216	2890	17	Nc1nc(Nc2ccc(N3CCC(N4CCCC4)CC3)cc2)sc1C(=O)c1ccc2c(c1)OCO2 [Example 25, {4-Amino-2-[4-(4-pyrrolidin-1-yl-piperidin-1-yl)-phenylamino]-thiazol-5-yl}-benzo[1,3]dioxol-5-yl-methanone]
1410	268	888	2	CN(C)C1CCN(c2ccc(Nc3nc(N)c(C(=O)c4cccc(F)c4)s3)cc2)CC1 [Example 41, {4-Amino-2-[4-(4-dimethylamino-piperidin-1-yl)-phenylamino]-thiazol-5-yl}-(3-fluoro-phenyl)-methanone]
1740	940	7270	45	COc1ccc(C(=O)c2sc(Nc3ccc(N4CCC(N(C)C)CC4)cc3)nc2N)cc1[N+](=O)[O-] [Example 113, {4-Amino-2-[4-(4-dimethylamino-piperidin-1-yl)-phenylamino]-thiazol-5-yl}-(4-methoxy-3-nitro-phenyl)-methanone]
6640	1910	5740	29	Nc1nc(Nc2ccc(N3CCC(N4CCCCC4)CC3)cc2)sc1C(=O)c1ccc2c(c1)OCO2 [Example 32, [4-Amino-2-(4-[1,4′]bipiperidinyl-1′-yl-phenylamino)-thiazol-5-yl]-benzo[1,3]dioxol-5-yl-methanone]
840	176	545	14	Nc1nc(Nc2ccc(N3CCC(N4CCCCC4)CC3)cc2)sc1C(=O)c1cccc(F)c1 [Example 30, [4-Amino-2-(4-[1,4′]bipiperidinyl-1′-yl-phenylamino)-thiazol-5-yl]-(3-fluoro-phenyl)-methanone]
6020	1610	3450	19	Nc1nc(Nc2ccc(N3CCC(N4CCCC(O)C4)CC3)cc2)sc1C(=O)c1cccc(O)c1 (centres unmarked) [Example 81, {4-Amino-2-[4-(3-hydroxy-[1,4′]bipiperidinyl-1′-yl)-phenylamino]-thiazol-5-yl}-(3-hydroxy-phenyl)-methanone]
2160	700	1940	11	Cc1ccc(C(=O)c2sc(Nc3ccc(N4CCC(N5CCCC5)CC4)cc3)nc2N)cc1F [Example 121, {4-Amino-2-[4-(4-pyrrolidin-1-yl-piperidin-1-yl)-phenylamino]-thiazol-5-yl}-(3-fluoro-4-methyl-phenyl)-methanone]
